Measurements reported in PubChem BioAssay AID2060364.

Test system: JHH-NF1-GBM1 glioma viability, PrestoBlue fluorescence, 120 h
Assay: growth inhibition of ATRX-deficient high-grade glioma cells – cell-based, JHH-NF1-GBM1, PrestoBlue, dose response (AID 2060364)

- IC50: 4.84 µM
Structure (SMILES): O=[N+]([O-])c1c(NCCO)cc(Sc2nc3ccccc3s2)c2nonc12
